Our source for the IC50 values is patent publication US8518956B2, “1-(1-(2-ethoxyethyl)-3-ethyl-7-(4-methylpyridin-2-ylamino)-1H-pyrazolo[4,3-d]pyrimidin-5-yl) piperidine-4-carboxylic acid and salts thereof” (priority 2005, dated 2013).

Each structure is given as a SMILES string. pIC50: −log10 of the molar value.

In one assay the target is T1, PDE5 enzyme (Homo sapiens, UniProt O76074).
T1 construct: The PDE5 enzyme isolated from human platelets; from tissue; host or cells: human platelets
Kind of assay: Method 1: Human Platelet PDE5 Enzyme Inhibition Scintillation Proximity Assay. Type of assay: biochemical. To be noted: METHOD 1: PDE5 IC50, Table B, WO2004096810 examples. The essentials:
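Human platelet PDE5 hydrolysing 500 nM cGMP (3:1 unlabelled:[3H]) in Tris-HCl pH 7.4 with MgCl2 and BSA, 60 min at 30 °C. Reaction stopped with yttrium silicate SPA beads and [3H]GMP counted by scintillation. IC50 from sigmoid curves over a 10-point half-log dilution series, in duplicate.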

In the next assay the target is PDE6 enzyme. To be noted: read-out: METHOD 2: PDE6 IC50; Table F, WO2004096810 examples. The source says:
Method 2: Human Retina PDE6 Enzyme Inhibition Scintillation Proximity Assay (SPA)
The inhibition of PDE6 enzyme activity by a test compound can be measured in accordance with the in vitro assay of Method 1, but instead using semi-purified PDE6 enzyme isolated from human, bovine or canine retina in place of PDE5 enzyme. […] [3H]GMP binds to yttrium silicate SPA beads and is detected by scintillation counting. • PDE6 Purification: PDE6 can be isolated and purified from the following: Soluble rod PDE6/Rod Outer Segment PDE6 from Bovine eyes (Charles River Ltd, France); Cone PDE6 from Canine eyes (LAS); or Soluble rod and Cone PDE6 from Human eyes (I.I.A.M.).
While supporting the eye with the cornea uppermost, make a small incision through the conjunctiva below the level of the iris. The incision should be sufficient to allow the humor to escape through the cut. Using fine scissors, cut around the cornea to enable it to be lifted off as a flap. Using a small hook, engage the lens and gently pull it out of orbit, taking care not to pull out the retina at the same time. Allow the retina to drop down of its own accord to the base of the orbit.
Lift the retina with care and locate the optic nerve. Cut through the optic nerve and transfer the retina to a small dish containing a few ml of homogenisation buffer. Gently float the retina out on the surface of the buffer and remove any obvious pigmented material from the iris. Place the retina in a second dish with clean buffer to remove last traces of pigment and then transfer to a 50 ml Corning Costar centrifuge tube (Sigma) and keep on ice. • PDE6 Isolation and Purification from Retina: Allow 2 mls of the homogenisation buffer per bovine retina and 1 ml per retina for dog and human. Homogenise using hand-held homogeniser 3×5 second bursts cooling on ice between each burst. Filter homogenate through two layers of surgical gauze. Spin at 100,000 g for 60 minutes at 4° C. […] Run through FPLC (Pharmacia FPLC LKB/FRAC-100, Pharmacia) or aliquot and store in liquid nitrogen as needed. Method 2A: Alternative Human Retina PDE6 Enzyme Inhibition Scintillation Proximity Assay (SPA)

As for `Cc1ccnc(Nc2nc(N3CCC(C(=O)O)CC3)nc3c(C)nn(CCOCC(F)(F)F)c23)c1` [WO2004096810 Example 261], the values for the pIC50 against PDE5 enzyme and on PDE6 enzyme were 9.24 and 7.23, respectively.
Turning to `Cc1cc(Nc2nc(N3CCC(C(=O)O)CC3)nc3c(C)nn(CCOCC(F)(F)F)c23)ncn1` [WO2004096810 Example 262], the pIC50 at PDE5 enzyme was 9.03; on PDE6 enzyme, 7.32.
For `CCc1nn(CCOCC(F)(F)F)c2c(Nc3cc(C)ncn3)nc(N3CCC(C(=O)O)CC3)nc12` [WO2004096810 Example 263], in that order: 9.57 and 7.60.
